Converted amounts (≈) assume the structure as drawn. Square brackets hold non-standard residues; d marks the D form. Peptide text beside a SMILES is read from it.
Assays:
[1] = test system: C. parapsilosis clinical strains; experiment: MIC, clinical yeast strains; assay type: cell-based, Candida parapsilosis; set-up: unit: µg/ml
Protocol: (§1) Minimum inhibition concentrations (MICs) were determined against Escherichia coli (ATCC 25922), Staphylococcus aureus (ATCC 25923), Klebsiella pneumoniae (ATCC 10031) and Pseudomonas aeruginosa (ATCC 27853). Also clinical strains of E. coli, K. pneumoniae, E. cloacae, P. aeruginosa, Serratia marcescens, Proteus mirabilis, S. pneumoniae, Acinetobacter baumannii, A. johnsonii and S. aureus were used for MICs assays. Additionally, clinical strains of yeast including Candida albicans, C. glabrata, C. parapsilosis and C. quillermondiae were used. The susceptibility of these microorganisms to Chain peptides were determined using micro broth dilution assay. Colonies of the respective microorganism from Muller Hinton (MH) agar plates incubated overnight were suspended in MH broth media and final concentration of microorganism was adjusted to 5.0×10^5 cfu/ml. An aliquot of 10 μl of each Chain peptide, or gentamicin, tetracycline as reference antibiotics were added in differing concentrations along with 90 μl of bacterial suspension to 96 well polypropylene plates and incubated at 37° C. for 20 to 24 hours. Concentrations of Chain peptides and reference antibiotics ranged from 0.125 to 128 μg/ml and the MICs were recorded as the lowest concentration with no visual growth of bacteria. Similarly, antifungal MICs were tested in Potato dextrose broth.
(§2) Clinical strains of yeasts including Candida albicans, C. glabrata, C. parapsilosis and C. quillermondiae were also tested with the 12 Chain peptides. The minimum inhibitory concentration (MICs) varied between these peptides and are presented in Tables 4a, 4b, 4c and 5a, 5b, 5c. Peptides Chain 105, 201 and 308 are broad spectrum antimicrobials with MICs between 0.5-32 μg/ml against all the bacteria and yeasts tested, except Serratia marcescens and Proteus mirabilis, against which the MICs were between 64-128 μg/ml. Peptide Chain 306 has narrow spectrum activity against E. coli at 1 μg/ml and for the rest of the bacterial strains at >32 μg/ml (FIG. 10c).

[2] = test system: C. quillermondiae clinical strains; experiment: MIC, clinical yeast strains; assay type: cell-based, Candida quillermondiae; set-up: unit: μg/ml; conditions: C. quillermondiae clinical yeast strain 1
Protocol: as §1, §2

[3] = test system: Pseudomonas aeruginosa clinical strains; assay type: cell-based; conditions: clinical strains
Protocol: as §1, §2

[4] = test system: Klebsiella pneumoniae clinical strains; assay type: cell-based; conditions: clinical strains
Protocol: as §1, §2

[5] = test system: Escherichia coli clinical strains; assay type: cell-based; conditions: clinical strains
Protocol: as §1, §2

[6] = test system: all the bacteria and yeasts tested; assay type: cell-based
Protocol: as §1, §2

[7] = test system: Acinetobacter johnsonii clinical strains; assay type: cell-based; conditions: clinical strain 1; D-form peptides; MH broth-cation adjusted, 0.02% BSA, 0.2% acetic acid
Protocol: as §1, §2

[8] = test system: Streptococcus pneumoniae clinical strains; assay type: cell-based; conditions: clinical strains
Protocol: as §1, §2

[9] = test system: Enterobacter cloacae clinical strains; assay type: cell-based; conditions: clinical strains
Protocol: as §1, §2

[10] = test system: Acinetobacter baumannii clinical strains; assay type: cell-based; conditions: clinical strains
Protocol: as §1, §2

[11] = test system: Proteus mirabilis clinical strains; assay type: cell-based; conditions: clinical strains
Protocol: as §1, §2

[12] = test system: Staphylococcus aureus clinical strains; assay type: cell-based; conditions: clinical strains
Protocol: as §1, §2

[13] = test system: Serratia marcescens clinical strains; assay type: cell-based; conditions: clinical strains
Protocol: as §1, §2

[14] = test system: C. glabrata clinical strains; experiment: MIC, clinical yeast strains; assay type: cell-based, Candida glabrata; set-up: unit: µg/ml
Protocol: as §1, §2

[15] = test system: Candida albicans clinical strains; experiment: MIC, clinical yeast strains; assay type: cell-based; set-up: unit: μg/ml
Protocol: as §1, §2

[16] = C. parapsilosis clinical yeast strain 1
[17] = C. parapsilosis clinical yeast strain 2
[18] = C. parapsilosis clinical yeast strain 3
[19] = C. parapsilosis clinical yeast strain 4
[20] = C. glabrata clinical yeast strain 1
[21] = C. glabrata clinical yeast strain 2
[22] = C. glabrata clinical yeast strain 3
[23] = C. glabrata clinical yeast strain 4
[24] = Candida albicans clinical yeast strain 1
[25] = Candida albicans clinical yeast strain 2
[26] = Candida albicans clinical yeast strain 3
[27] = Candida albicans clinical yeast strain 4
[28] = Candida albicans clinical yeast strain 5

CC[C@@H](C)[C@@H](NC(=O)[C@@H](CCSC)NC(=O)[C@@H](C)NC(=O)[C@@H](CCCNC(=N)N)NC(=O)[C@@H](Cc1c[nH]c2ccccc12)NC(=O)[C@@H](CCCCN)NC(=O)[C@H](N)CCCNC(=N)N)C(=O)N[C@H](CCCNC(=N)N)C(=O)N[C@H](CC(C)C)C(=O)N[C@H](Cc1c[nH]cn1)C(=O)N[C@H](C)C(=O)N[C@H](CCCCN)C(=O)N[C@H](Cc1c[nH]c2ccccc12)C(=O)N[C@H](CC(C)C)C(=O)N[C@H](CCCNC(=N)N)C(=O)N[C@H](CCCCN)C(=O)O [Chain105D] (H-[dR][dK][dW][dR][dA][dM][dI][dR][dL][dH][dA][dK][dW][dL][dR][dK]-OH)
Minimum inhibitory concentration [1, 16]: 8
Minimum inhibitory concentration [1, 17]: 8
Minimum inhibitory concentration [1, 18]: 8
Minimum inhibitory concentration [1, 19]: 4
Minimum inhibitory concentration [2]: 8
MIC, Pseudomonas aeruginosa strain 1 [3]: 4 µg/mL (≈ 1.86 µM)
MIC, Pseudomonas aeruginosa strain 2 [3]: 4 µg/mL (≈ 1.86 µM)
MIC, Pseudomonas aeruginosa strain 3 [3]: 4 µg/mL (≈ 1.86 µM)
MIC, Pseudomonas aeruginosa strain 4 [3]: 4 µg/mL (≈ 1.86 µM)
MIC, Pseudomonas aeruginosa strain 5 [3]: 4 µg/mL (≈ 1.86 µM)
MIC, Klebsiella pneumoniae strain 1 [4]: 4 µg/mL (≈ 1.86 µM)
MIC, Klebsiella pneumoniae strain 2 [4]: 2 µg/mL (≈ 0.93 µM)
MIC, Klebsiella pneumoniae strain 3 [4]: 4 µg/mL (≈ 1.86 µM)
MIC, Klebsiella pneumoniae strain 4 [4]: 4 µg/mL (≈ 1.86 µM)
MIC, Klebsiella pneumoniae strain 5 [4]: 2 µg/mL (≈ 0.93 µM)
MIC, Escherichia coli strain 1 [5]: 1 µg/mL (≈ 0.465 µM)
MIC, Escherichia coli strain 2 [5]: 4 µg/mL (≈ 1.86 µM)
MIC, Escherichia coli strain 3 [5]: 1 µg/mL (≈ 0.465 µM)
MIC, Escherichia coli strain 4 [5]: 1 µg/mL (≈ 0.465 µM)
MIC, Escherichia coli strain 5 [5]: 2 µg/mL (≈ 0.93 µM)
MICs against all the bacteria and yeasts tested [6]: 0.5 to 32 µg/mL
MIC, Acinetobacter johnsonii strain 1 [7]: 4 µg/mL (≈ 1.86 µM)
MIC, Streptococcus pneumoniae strain 1 [8]: 4 µg/mL (≈ 1.86 µM)
MIC, Streptococcus pneumoniae strain 2 [8]: 2 µg/mL (≈ 0.93 µM)
MIC, Streptococcus pneumoniae strain 3 [8]: 2 µg/mL (≈ 0.93 µM)
MIC, Streptococcus pneumoniae strain 4 [8]: 4 µg/mL (≈ 1.86 µM)
MIC, Streptococcus pneumoniae strain 5 [8]: 2 µg/mL (≈ 0.93 µM)
MIC, Enterobacter cloacae strain 1 [9]: 2 µg/mL (≈ 0.93 µM)
MIC, Enterobacter cloacae strain 2 [9]: 2 µg/mL (≈ 0.93 µM)
MIC, Enterobacter cloacae strain 3 [9]: 2 µg/mL (≈ 0.93 µM)
MIC, Enterobacter cloacae strain 4 [9]: 2 µg/mL (≈ 0.93 µM)
MIC, Enterobacter cloacae strain 5 [9]: 1 µg/mL (≈ 0.465 µM)
MIC, Acinetobacter baumannii strain 1 [10]: 4 µg/mL (≈ 1.86 µM)
MIC, Acinetobacter baumannii strain 2 [10]: 4 µg/mL (≈ 1.86 µM)
MIC, Acinetobacter baumannii strain 3 [10]: 4 µg/mL (≈ 1.86 µM)
MIC, Acinetobacter baumannii strain 4 [10]: 2 µg/mL (≈ 0.93 µM)
MIC, Acinetobacter baumannii strain 5 [10]: 4 µg/mL (≈ 1.86 µM)
MIC, Proteus mirabilis strain 1 [11]: >128 µg/mL
MIC, Proteus mirabilis strain 2 [11]: 32 µg/mL (≈ 14.9 µM)
MIC, Proteus mirabilis strain 3 [11]: 64 µg/mL (≈ 29.8 µM)
MIC, Proteus mirabilis strain 4 [11]: >128 µg/mL
MIC, Proteus mirabilis strain 5 [11]: >128 µg/mL
MICs against Proteus mirabilis [11]: 64 to 128 µg/mL
MIC, Staphylococcus aureus strain 1 [12]: 2 µg/mL (≈ 0.93 µM)
MIC, Staphylococcus aureus strain 2 [12]: 2 µg/mL (≈ 0.93 µM)
MIC, Staphylococcus aureus strain 3 [12]: 2 µg/mL (≈ 0.93 µM)
MIC, Staphylococcus aureus strain 4 [12]: 2 µg/mL (≈ 0.93 µM)
MIC, Staphylococcus aureus strain 5 [12]: 2 µg/mL (≈ 0.93 µM)
MIC, Serratia marcescens strain 1 [13]: 128 µg/mL (≈ 59.5 µM)
MIC, Serratia marcescens strain 2 [13]: 128 µg/mL (≈ 59.5 µM)
MIC, Serratia marcescens strain 3 [13]: 128 µg/mL (≈ 59.5 µM)
MIC, Serratia marcescens strain 4 [13]: 128 µg/mL (≈ 59.5 µM)
MIC, Serratia marcescens strain 5 [13]: 128 µg/mL (≈ 59.5 µM)
MICs against Serratia marcescens [13]: 64 to 128 µg/mL
Minimum inhibitory concentration [14, 20]: 16
Minimum inhibitory concentration [14, 21]: 16
Minimum inhibitory concentration [14, 22]: 8
Minimum inhibitory concentration [14, 23]: 32
Minimum inhibitory concentration [15, 24]: 32
Minimum inhibitory concentration [15, 25]: 16
Minimum inhibitory concentration [15, 26]: 32
Minimum inhibitory concentration [15, 27]: 32
Minimum inhibitory concentration [15, 28]: 32

CC[C@@H](C)[C@@H](NC(=O)[C@@H](CCSC)NC(=O)[C@@H](C)NC(=O)[C@@H](CCCNC(=N)N)NC(=O)[C@@H](Cc1c[nH]c2ccccc12)NC(=O)[C@@H](CCCCN)NC(=O)[C@H](N)CCCNC(=N)N)C(=O)N[C@H](CCCNC(=N)N)C(=O)N[C@H](CC(C)C)C(=O)N[C@H](Cc1c[nH]cn1)C(=O)N[C@H](C)C(=O)N[C@H](CCCCN)C(=O)N[C@H](CCCNC(=N)N)C(=O)N[C@H](CC(C)C)C(=O)N[C@H](CCCNC(=N)N)C(=O)N[C@H](CCCCN)C(=O)O [Chain104D] (H-[dR][dK][dW][dR][dA][dM][dI][dR][dL][dH][dA][dK][dR][dL][dR][dK]-OH)
Minimum inhibitory concentration [1, 16]: 4
Minimum inhibitory concentration [1, 17]: 4
Minimum inhibitory concentration [1, 18]: 4
Minimum inhibitory concentration [1, 19]: 2
Minimum inhibitory concentration [2]: 4
MIC, Pseudomonas aeruginosa strain 1 [3]: 4 µg/mL (≈ 1.89 µM)
MIC, Pseudomonas aeruginosa strain 2 [3]: 2 µg/mL (≈ 0.944 µM)
MIC, Pseudomonas aeruginosa strain 3 [3]: 4 µg/mL (≈ 1.89 µM)
MIC, Pseudomonas aeruginosa strain 4 [3]: 2 µg/mL (≈ 0.944 µM)
MIC, Pseudomonas aeruginosa strain 5 [3]: 1 µg/mL (≈ 0.472 µM)
MIC, Klebsiella pneumoniae strain 1 [4]: 8 µg/mL (≈ 3.77 µM)
MIC, Klebsiella pneumoniae strain 2 [4]: 4 µg/mL (≈ 1.89 µM)
MIC, Klebsiella pneumoniae strain 3 [4]: 8 µg/mL (≈ 3.77 µM)
MIC, Klebsiella pneumoniae strain 4 [4]: 16 µg/mL (≈ 7.55 µM)
MIC, Klebsiella pneumoniae strain 5 [4]: 4 µg/mL (≈ 1.89 µM)
MIC, Escherichia coli strain 1 [5]: 4 µg/mL (≈ 1.89 µM)
MIC, Escherichia coli strain 2 [5]: 4 µg/mL (≈ 1.89 µM)
MIC, Escherichia coli strain 3 [5]: 4 µg/mL (≈ 1.89 µM)
MIC, Escherichia coli strain 4 [5]: 4 µg/mL (≈ 1.89 µM)
MIC, Escherichia coli strain 5 [5]: 4 µg/mL (≈ 1.89 µM)
MIC, Acinetobacter johnsonii strain 1 [7]: 8 µg/mL (≈ 3.77 µM)
MIC, Streptococcus pneumoniae strain 1 [8]: 4 µg/mL (≈ 1.89 µM)
MIC, Streptococcus pneumoniae strain 2 [8]: 2 µg/mL (≈ 0.944 µM)
MIC, Streptococcus pneumoniae strain 3 [8]: 1 µg/mL (≈ 0.472 µM)
MIC, Streptococcus pneumoniae strain 4 [8]: 4 µg/mL (≈ 1.89 µM)
MIC, Streptococcus pneumoniae strain 5 [8]: 1 µg/mL (≈ 0.472 µM)
MIC, Enterobacter cloacae strain 1 [9]: 4 µg/mL (≈ 1.89 µM)
MIC, Enterobacter cloacae strain 2 [9]: 4 µg/mL (≈ 1.89 µM)
MIC, Enterobacter cloacae strain 3 [9]: 8 µg/mL (≈ 3.77 µM)
MIC, Enterobacter cloacae strain 4 [9]: 4 µg/mL (≈ 1.89 µM)
MIC, Enterobacter cloacae strain 5 [9]: 2 µg/mL (≈ 0.944 µM)
MIC, Acinetobacter baumannii strain 1 [10]: 16 µg/mL (≈ 7.55 µM)
MIC, Acinetobacter baumannii strain 2 [10]: 8 µg/mL (≈ 3.77 µM)
MIC, Acinetobacter baumannii strain 3 [10]: 8 µg/mL (≈ 3.77 µM)
MIC, Acinetobacter baumannii strain 4 [10]: 4 µg/mL (≈ 1.89 µM)
MIC, Acinetobacter baumannii strain 5 [10]: 8 µg/mL (≈ 3.77 µM)
MIC, Proteus mirabilis strain 1 [11]: >128 µg/mL
MIC, Proteus mirabilis strain 2 [11]: 32 µg/mL (≈ 15.1 µM)
MIC, Proteus mirabilis strain 3 [11]: 128 µg/mL (≈ 60.4 µM)
MIC, Proteus mirabilis strain 4 [11]: >128 µg/mL
MIC, Proteus mirabilis strain 5 [11]: >128 µg/mL
MIC, Staphylococcus aureus strain 1 [12]: 4 µg/mL (≈ 1.89 µM)
MIC, Staphylococcus aureus strain 2 [12]: 2 µg/mL (≈ 0.944 µM)
MIC, Staphylococcus aureus strain 3 [12]: 4 µg/mL (≈ 1.89 µM)
MIC, Staphylococcus aureus strain 4 [12]: 2 µg/mL (≈ 0.944 µM)
MIC, Staphylococcus aureus strain 5 [12]: 4 µg/mL (≈ 1.89 µM)
MIC, Serratia marcescens strain 1 [13]: >128 µg/mL
MIC, Serratia marcescens strain 2 [13]: >128 µg/mL
MIC, Serratia marcescens strain 3 [13]: >128 µg/mL
MIC, Serratia marcescens strain 4 [13]: >128 µg/mL
MIC, Serratia marcescens strain 5 [13]: 128 µg/mL (≈ 60.4 µM)
Minimum inhibitory concentration [14, 20]: 8
Minimum inhibitory concentration [14, 21]: 8
Minimum inhibitory concentration [14, 22]: 8
Minimum inhibitory concentration [14, 23]: 16
Minimum inhibitory concentration [15, 24]: 8
Minimum inhibitory concentration [15, 25]: 8
Minimum inhibitory concentration [15, 26]: 8
Minimum inhibitory concentration [15, 27]: 8
Minimum inhibitory concentration [15, 28]: 8

From patent US10457709B2, “Antimicrobial peptides, their variants and uses” (priority 2015, dated 2019)
